# Measured values: US10591445B2, “Methods for analysis and resolution of preparations of dianhydrogalactitol and derivatives or analogs thereof” (Del Mar Pharmaceuticals (BC) Ltd., priority 2015, dated 2020)
# What was measured:
# [1] = Solution stability of DAG sample solution (HPLC-ELSD); type: physicochemical; details: 8 mg/mL in acetonitrile/water (85:15)
# Procedure: The test sample solutions (nominal 8 mg/mL) are prepared as follows. The sample preparation for DAG drug substance or API can be as follows. Accurately weigh, in duplicate, about 80 mg of DAG API sample into clean 10 mL volumetric flasks. Dissolve DAG API sample in approximately 5 mL of diluent, diluted to volume with diluent, and mix. The sample preparation for DAG drug product (lyophilized powder, 40 mg/vial) can be as follows: Clean and remove the closure of the vial. Reconstitute the lyophilized vial with 5.0 mL diluent to yield an 8 mg/mL solution. Prepare samples in duplicate (using 2 vials). The sample solutions can be stored up to 48 hrs at 2-8° C. and 52 hrs at ambient laboratory conditions.
# With respect to solution stability, the recovery of the aged solutions should be within 85%-115% of the initial assay. […]
# The experimental approach for determining solution stability was as follows: For a standard solution, a dulcitol standard solution was prepared at 1.0% of DAG nominal conc. in one replicate and placed the solution under ambient laboratory conditions and refrigerated conditions (2-8° C.), respectively, using 1% Linearity standard solutions). […] For time points of less than 24 hours, solution stability is evaluated against fresh standards. The recovery of the aged solutions is evaluated. […] For time points of less than 24 hours, solution stability is evaluated against fresh standards.
# [2] = Solution stability of dulcitol standard solution (HPLC-ELSD); type: physicochemical; details: for Assay / Concentration: standard solution
# Procedure: The standard solutions can be stored up to 48 hrs at 2-8° C. and can be stored up to 52 hrs at ambient laboratory condition. The standard solutions can be used to generate a standard curve as described further below.
# With respect to solution stability, the recovery of the aged solutions should be within 85%-115% of the initial assay. The absolute difference should be no more than 0.2% for an impurity at ≤1.0%. For an impurity >1.0%, the result of the aged solution should be within 80%-120% of the original. No new impurities at ≥1.0% should be observed.
# The experimental approach for determining solution stability was as follows: For a standard solution, a dulcitol standard solution was prepared at 1.0% of DAG nominal conc. in one replicate and placed the solution under ambient laboratory conditions and refrigerated conditions (2-8° C.), respectively, using 1% Linearity standard solutions). The solution was reanalyzed at different time intervals, such as 2 hours, 4 hours, 8 hours, 24 hours and 48 hours. For time points of less than 24 hours, solution stability is evaluated against fresh standards. The recovery of the aged solutions is evaluated. For sample solutions, a sample solution at a specified DAG nominal concentration was prepared in one replicate and placed under laboratory conditions at ambient temperature or under refrigerated conditions (2-8° C.). The solution was reanalyzed at different time intervals, such as 2 hours, 4 hours, 8 hours, 24 hours and 48 hours. For time points of less than 24 hours, solution stability is evaluated against fresh standards.
# [3] = ambient laboratory conditions, 0 h
# [4] = ambient laboratory conditions, 2 h
# [5] = ambient laboratory conditions, 4 h
# [6] = ambient laboratory conditions, 8 h
# [7] = ambient laboratory conditions, 25 h
# [8] = ambient laboratory conditions, 48 h
smiles,measurement,setting,value
"OC(C1CO1)C(O)C1CO1 (stereo not shown) [DAG, 1,2:5,6 dianhydrogalactitol]",Time the sample solutions can be stored,[1]; 2-8° C.,up to 48 hrs
same,Time the sample solutions can be stored,[1]; ambient laboratory conditions,≤ 52 h
"OC[C@@H](O)[C@H](O)[C@H](O)[C@@H](O)CO [Dulcitol, dulcitol]",Time the standard solutions can be stored,[2]; 2-8° C.,up to 48 hrs
same,Time the standard solutions can be stored,[2]; ambient laboratory condition,up to 52 hrs
same,Assay,"[2]; 2-8° C., 0 h",109.233%
same,Concentration,"[2]; 2-8° C., 0 h",89.5 µg/mL
same,Assay,"[2]; 2-8° C., 2 h",109.076%
same,Concentration,"[2]; 2-8° C., 2 h",89.4 µg/mL
same,Assay,"[2]; 2-8° C., 4 h",109.164%
same,Concentration,"[2]; 2-8° C., 4 h",89.5 µg/mL
same,Assay,"[2]; 2-8° C., 8 h",108.302%
same,Concentration,"[2]; 2-8° C., 8 h",88.8 µg/mL
same,Assay,"[2]; 2-8° C., 25 h",109.056%
same,Concentration,"[2]; 2-8° C., 25 h",89.4 µg/mL
same,Assay,"[2]; 2-8° C., 48 h",108.947%
same,Concentration,"[2]; 2-8° C., 48 h",89.3 µg/mL
same,Assay,[2]; [3],109.944%
same,Concentration,[2]; [3],89.8 µg/mL
same,Assay,[2]; [4],109.778%
same,Concentration,[2]; [4],89.7 µg/mL
same,Assay,[2]; [5],109.059%
same,Concentration,[2]; [5],89.1 µg/mL
same,Assay,[2]; [6],108.590%
same,Concentration,[2]; [6],88.7 µg/mL
same,Assay,[2]; [7],110.553%
same,Concentration,[2]; [7],90.3 µg/mL
same,Assay,[2]; [8],108.986%
same,Concentration,[2]; [8],89.1 µg/mL
